Here are results for six molecules from article PMC6269660, “Anti-Inflammatory Cycloartane-Type Saponins of Astragalus membranaceus” (Molecules, 2013).

Assay type in all cases: cell-based
Data set [1] in a line: Cell viability by MTT reduction. The settings on record: mouse, at a concentration of 100 μM, RAW 264.7 cells, MTT reduction, mean ± SD of three independent experiments. The protocol:
(§1) Assays for NO production and cell viability were carried out as previously described. Briefly, RAW 264.7 macrophages were harvested and seeded in 24-well plates (3 × 10^5 cells/well) for the measurement of NO production. The plates were pretreated with various concentrations of samples for 1 h and incubated with LPS (1 μg/mL) for 7 h. The amount of NO was determined by the nitrite concentration in the cultured RAW264.7 macrophage supernatants using the Griess reagent. The cell viability was evaluated by MTT reduction.
(In general: Formazan colour is commonly taken as a measure of viable cells.)

The next data set concerns RAW 264.7 macrophages. Briefly: Cell viability by MTT reduction. Conditions: RAW 264.7 cells treated with compounds. As for the experimental part:
as §1

Data set [2] deals with LPS-induced NO production in RAW 264.7 macrophage cells. Briefly: Inhibition of LPS-induced NO production (nitrite, Griess reagent). The settings on record: for inhibition of NO production (in words): LPS-induced RAW264.7 macrophages. The protocol:
Previous studies have already reported on the anti-inflammatory effects of components obtained from A. membranaceus. Thus, we also investigated the inhibitory effects of compounds 1–5 on NO production by using the Griess reaction to measure nitrite, a soluble oxidation product of NO, in the culture medium of LPS-induced RAW 264.7 macrophages.
as §1
On the technique in general: Nitrite, measured by Griess reagent, commonly stands in for NO production.

For orientation: viability means the share of living cells, or the viability signal relative to a control. Low readings indicate more harm to the cells, high ones less harm to the cells. Usually IC50 stands for the point on the concentration scale where inhibition reaches its midpoint.

In data set [1] (RAW 264.7 macrophages), `CC(=O)OC1C(O)COC(OC2CCC34CC35CCC3(C)C(C(C)CCC(O)C(C)(C)O)C(O)CC3(C)C5CC(OC3OC(CO)C(O)C(O)C3O)C4C2(C)C)C1OC(C)=O` (centres unmarked) [Compound 2, agroastragaloside I] registered a viability at 8 h, 100 µM of 54.5 ± 1.21%. The “cell toxicity / influence on cell viability (in words)” value (from here on “cell toxicity / influence”) with RAW 264.7 macrophages is on record as “Some cell toxicity was observed”.

Consider `CC(=O)O[C@@H]1[C@@H](O)[C@H](O[C@H]2CC[C@]34C[C@]35CC[C@]3(C)[C@@H]([C@@]6(C)CC[C@@H](C(C)(C)O)O6)[C@@H](O)C[C@@]3(C)[C@@H]5C[C@H](O[C@@H]3O[C@H](CO)[C@@H](O)[C@H](O)[C@H]3O)[C@H]4C2(C)C)OC[C@H]1O` [Compound 4, isoastragaloside II], for which the viability at 8 h, 100 µM in data set [1] (RAW 264.7 macrophages) is 69 ± 1.82%. For the same molecule, the “cell toxicity / influence” value with RAW 264.7 macrophages is reported as “Some cell toxicity was observed”.

In data set [1] (RAW 264.7 macrophages), `CC(=O)OC1C(OC2CCC34CC35CCC3(C)C(C(C)CCC(O)C(C)(C)O)C(O)CC3(C)C5CC(OC3OC(CO)C(O)C(O)C3O)C4C2(C)C)OCC(O)C1O` (centres unmarked) [Compound 3, agroastragaloside II] returned a viability at 8 h, 100 µM of 47.6 ± 3.4%. Besides, the “cell toxicity / influence” value in the data set on RAW 264.7 macrophages was “Some cell toxicity was observed”.

Consider `O=C(O)/C=C/c1ccc(O)c(O)c1` [Caffeic acid, reference compound], for which the viability at 8 h, 100 µM in data set [1] was 82.2 ± 1.64%. For the same molecule, the half-inhibitory concentration (IC50) in data set [2] (Mus musculus, RAW264.7, LPS-activated RAW 264.7 cells, pretreated 1 h with compounds, then LPS (1 μg/mL) for 7 h, mean ± SD of three independent experiments) is 830 ± 1150 nM.

For `CC(C)(O)[C@@H]1CC[C@](C)([C@H]2[C@@H](O)C[C@@]3(C)[C@@H]4C[C@H](O[C@@H]5O[C@H](CO)[C@@H](O)[C@H](O)[C@H]5O)[C@H]5C(C)(C)[C@@H](O[C@@H]6OC[C@@H](O)[C@H](O)[C@H]6O)CC[C@@]56C[C@@]46CC[C@]23C)O1` [Compound 5, astragaloside IV], the viability at 8 h, 100 µM in data set [1] turned out to be 94.4 ± 4.33%. In the data set on RAW 264.7 macrophages, the “cell toxicity / influence” value is given as “without cytotoxicity”. Also, the “inhibition of NO production (in words)” value in data set [2] is on record as “significant inhibition of NO production”.

The molecule `CC(=O)OC1C(OC2CCC34CC35CCC3(C)C(C(C)CCC(O)C(C)(C)O)CCC3(C)C5CC(OC3OC(CO)C(O)C(O)C3O)C4C2(C)C)OCC(O)C1O` [Compound 1, 3-O-β-(2'-O-acetyl)-D-xylopyranosyl-6-O-β-D-glucopyranosyl-(24S)-3β,6α,24α,25-tetrahydroxy-9,19-cyclolanostane] had a viability at 8 h, 100 µM in data set [1] (RAW 264.7 macrophages) of 93.2 ± 6.96%. Also, in the data set on RAW 264.7 macrophages, the “cell toxicity / influence” value is “without cytotoxicity”. For the same molecule, the “inhibition of NO production (in words)” value in data set [2] is “significant inhibition of NO production”.
